Reference: ChEMBL document CHEMBL3769336, “Discovery of a Chemical Tool Inhibitor Targeting the Bromodomains of TRIM24 and BRPF” (J Med Chem, 2016)

Tests used:
[1] = target: T1, Transcription intermediary factor 1-alpha (Homo sapiens, UniProt O15164); test: Binding affinity to N-terminal His6-SUMO-1-tagged recombinant human TRIM24 bromodomain expressed in Escherichia coli BL21(DE3)-R3-pRARE2 cells by isothermal titration calorimetry
T1 sequence (O15164 whole entry): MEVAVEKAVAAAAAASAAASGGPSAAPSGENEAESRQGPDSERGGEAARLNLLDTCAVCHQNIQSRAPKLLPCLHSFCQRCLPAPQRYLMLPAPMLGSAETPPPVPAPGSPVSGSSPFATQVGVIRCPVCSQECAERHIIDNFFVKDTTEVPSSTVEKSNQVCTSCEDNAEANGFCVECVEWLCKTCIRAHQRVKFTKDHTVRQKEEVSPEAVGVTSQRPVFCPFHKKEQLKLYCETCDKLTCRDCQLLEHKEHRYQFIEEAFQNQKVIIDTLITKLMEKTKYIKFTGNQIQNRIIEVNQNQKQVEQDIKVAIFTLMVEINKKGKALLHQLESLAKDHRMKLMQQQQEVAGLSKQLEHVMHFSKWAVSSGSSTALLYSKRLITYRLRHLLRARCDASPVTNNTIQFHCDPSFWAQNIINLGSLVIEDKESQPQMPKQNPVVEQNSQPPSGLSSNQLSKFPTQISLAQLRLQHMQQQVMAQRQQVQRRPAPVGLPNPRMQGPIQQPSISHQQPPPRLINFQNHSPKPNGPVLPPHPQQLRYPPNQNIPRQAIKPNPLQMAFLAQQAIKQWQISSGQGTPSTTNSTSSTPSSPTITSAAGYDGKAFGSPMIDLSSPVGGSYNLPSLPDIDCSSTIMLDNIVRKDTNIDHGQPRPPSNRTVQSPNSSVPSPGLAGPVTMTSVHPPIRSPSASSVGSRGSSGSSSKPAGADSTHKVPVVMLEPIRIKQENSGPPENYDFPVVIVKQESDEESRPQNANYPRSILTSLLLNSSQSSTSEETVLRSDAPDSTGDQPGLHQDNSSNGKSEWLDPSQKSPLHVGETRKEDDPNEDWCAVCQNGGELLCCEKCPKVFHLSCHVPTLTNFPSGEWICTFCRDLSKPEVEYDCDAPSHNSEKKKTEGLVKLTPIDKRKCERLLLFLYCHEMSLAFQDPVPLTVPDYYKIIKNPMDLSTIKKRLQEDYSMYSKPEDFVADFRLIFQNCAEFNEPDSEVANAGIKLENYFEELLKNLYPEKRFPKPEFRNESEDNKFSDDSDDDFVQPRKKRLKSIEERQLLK

Peregrin = target: T2, Peregrin (Homo sapiens, UniProt P55201); test: Inhibition of BRPF1B (unknown origin) by Alpha Screen assay
T2 sequence (P55201 whole entry): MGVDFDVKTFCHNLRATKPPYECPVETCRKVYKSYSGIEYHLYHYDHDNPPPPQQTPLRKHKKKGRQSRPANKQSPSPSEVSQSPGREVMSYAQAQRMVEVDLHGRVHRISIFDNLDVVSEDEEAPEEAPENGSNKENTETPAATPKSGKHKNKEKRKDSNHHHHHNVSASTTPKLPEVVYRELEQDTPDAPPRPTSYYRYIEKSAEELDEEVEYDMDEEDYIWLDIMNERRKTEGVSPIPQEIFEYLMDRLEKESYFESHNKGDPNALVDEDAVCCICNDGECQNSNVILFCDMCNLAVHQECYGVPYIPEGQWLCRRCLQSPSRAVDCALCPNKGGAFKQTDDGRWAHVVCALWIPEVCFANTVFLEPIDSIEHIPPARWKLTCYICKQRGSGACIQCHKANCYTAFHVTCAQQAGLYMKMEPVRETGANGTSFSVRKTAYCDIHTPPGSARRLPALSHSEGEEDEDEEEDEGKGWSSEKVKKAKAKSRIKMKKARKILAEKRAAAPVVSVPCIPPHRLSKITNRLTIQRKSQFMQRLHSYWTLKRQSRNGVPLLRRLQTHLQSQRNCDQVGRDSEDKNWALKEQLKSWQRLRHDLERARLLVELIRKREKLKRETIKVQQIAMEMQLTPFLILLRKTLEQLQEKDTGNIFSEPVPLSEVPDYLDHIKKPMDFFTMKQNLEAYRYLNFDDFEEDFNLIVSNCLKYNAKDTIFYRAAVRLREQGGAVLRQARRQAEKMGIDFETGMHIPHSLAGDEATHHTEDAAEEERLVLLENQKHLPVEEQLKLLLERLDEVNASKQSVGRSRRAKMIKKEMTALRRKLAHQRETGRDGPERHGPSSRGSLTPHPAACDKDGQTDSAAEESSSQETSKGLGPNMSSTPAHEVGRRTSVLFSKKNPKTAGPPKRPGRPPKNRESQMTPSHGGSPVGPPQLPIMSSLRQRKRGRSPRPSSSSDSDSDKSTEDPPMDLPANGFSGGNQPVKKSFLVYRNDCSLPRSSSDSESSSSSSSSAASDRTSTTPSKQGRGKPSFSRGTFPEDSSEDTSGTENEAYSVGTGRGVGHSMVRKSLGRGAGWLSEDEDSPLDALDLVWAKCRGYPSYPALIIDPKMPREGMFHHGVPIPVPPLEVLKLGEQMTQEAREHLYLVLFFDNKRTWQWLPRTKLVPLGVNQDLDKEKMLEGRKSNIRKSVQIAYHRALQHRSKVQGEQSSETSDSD

Kd [1]: 0.222 µM
IC50 (Peregrin): 0.34 µM
Compound: COc1ccc(Oc2cc3c(cc2NS(=O)(=O)c2ccc(OC)c(OC)c2)n(C)c(=O)n3C)cc1
